Data published in patent publication US20040254162A1, “Oxazolidinone derivatives as antimicrobials” (priority 2001, published 2004).
≈ marks a conversion by molar mass, not a printed value. Where “and” joins values, the source holds several entries; their conditions need not be identical. Equal values may be shown once. Read-outs that look alike come from different tables or passages of the source.

Legend:
[1] = test system: Prevotella (Bacteroides) disiens; experiment: Agar dilution MIC, anaerobes; type: cell-based; conditions: single isolates, anaerobic agar dilution; for MIC: read-out: MIC Prevotella (Bacteroides) disiens
Prevotella intermedia = experiment: Agar dilution MIC, anaerobes; type: cell-based; conditions: single isolates, anaerobic agar dilution; for MIC: Prevotella intermedia, read-out: MIC Prevotella intermedia
[2] = test system: Porphyromonas asaccharolytica; experiment: Agar dilution MIC, anaerobes; type: cell-based; conditions: single isolate, anaerobic agar dilution; for MIC: Porphyromonas asaccharolytica, read-out: MIC Porphyromonas asaccharolytica
Eubacterium leutum = experiment: Agar dilution MIC, anaerobes; type: cell-based; conditions: single isolates, anaerobic agar dilution; for MIC: Eubacterium, read-out: MIC Eubacterium leutum
P. acnes = experiment: Agar dilution MIC, anaerobes; type: cell-based; conditions: single isolates, anaerobic agar dilution; for MIC: Cutibacterium acnes, read-out: MIC P. acnes
[3] = test system: Peptostreptococcus prevotii; experiment: Agar dilution MIC, anaerobes; type: cell-based; conditions: single isolates, anaerobic agar dilution; for MIC: Anaerococcus prevotii, read-out: MIC Peptostreptococcus prevotii
Fusobacterium necrogenes = experiment: Agar dilution MIC, anaerobes; type: cell-based; conditions: single isolate, anaerobic agar dilution; for MIC: Fusobacterium necrogenes, read-out: MIC Fusobacterium necrogenes
[4] = test system: Peptostreptococcus tetradius; experiment: Agar dilution MIC, anaerobes; type: cell-based; conditions: single isolates, anaerobic agar dilution; for MIC: Anaerococcus tetradius, read-out: MIC Peptostreptococcus tetradius
Clostridium camis = experiment: Agar dilution MIC, anaerobes; type: cell-based; conditions: single isolates, anaerobic agar dilution; for MIC: Clostridium, read-out: MIC Clostridium camis
Fusobacterium montiferum = experiment: Agar dilution MIC, anaerobes; type: cell-based; conditions: single isolates, anaerobic agar dilution; for MIC: Fusobacterium, read-out: MIC Fusobacterium montiferum
[5] = test system: Peptostreptococcus asaccharolyticus; experiment: Agar dilution MIC, anaerobes; type: cell-based; conditions: single isolates, anaerobic agar dilution
Fusobacterium nucleatum = experiment: Agar dilution MIC, anaerobes; type: cell-based; conditions: single isolates, anaerobic agar dilution; for MIC: Fusobacterium nucleatum, read-out: MIC Fusobacterium nucleatum
Porphyromonas gingivalis = experiment: Agar dilution MIC, anaerobes; type: cell-based; conditions: single isolate, anaerobic agar dilution; for MIC: Porphyromonas gingivalis, read-out: MIC Porphyromonas gingivalis
Bacteroides fragilis = experiment: Agar dilution MIC, anaerobes; type: cell-based; conditions: single isolates, anaerobic agar dilution; for MIC: Bacteroides fragilis, read-out: MIC Bacteroides fragilis
Clostridium perfringens = experiment: microbe, parasite or virus in culture; type: cell-based; conditions: for MIC Clostridium perfringens: single isolates, anaerobic agar dilution
Prevotella bivia = experiment: Agar dilution MIC, anaerobes; type: cell-based; conditions: single isolate, anaerobic agar dilution
anaerobic bacteria = experiment: Agar dilution method for anaerobic bacteria, summary; type: cell-based; conditions: anaerobes; for MIC50 / MIC90: Wilkins Chalgren agar, 48 hour
Clostridium difficile = experiment: Agar dilution MIC, anaerobes; type: cell-based; conditions: single isolates, anaerobic agar dilution
[6] = test system: Mycobacterium avium intracellulare; experiment: Agar dilution method, mycobacteria; type: cell-based
[7] = test system: Mycobacterium tuberculosis; experiment: microbe, parasite or virus in culture; conditions: 504 h
[8] = test system: Mycobacterium tuberculosis; conditions: geometric mean MIC
Fusobacterium varium = experiment: Agar dilution MIC, anaerobes; type: cell-based; conditions: single isolates, anaerobic agar dilution
[9] = test system: Prevotella melaninogenica; experiment: Agar dilution MIC, anaerobes; type: cell-based; conditions: single isolates, anaerobic agar dilution
[10] = test system: Peptostreptococcus magnum; experiment: Agar dilution MIC, anaerobes; type: cell-based; conditions: single isolates, anaerobic agar dilution; listed as Ax/clav
[11] = test system: Peptostreptococcus micros; experiment: Agar dilution MIC, anaerobes; type: cell-based; conditions: single isolates, anaerobic agar dilution

Compound | MIC Prevotella (Bacteroides) disiens [1] | MIC [1] | MIC (Prevotella intermedia) | MIC [2] | MIC (Eubacterium leutum) | MIC (P. acnes) | MIC P. acnes (P. acnes) | MIC [3] | MIC (Fusobacterium necrogenes) | MIC [4] | MIC (Clostridium camis) | MIC (Fusobacterium montiferum) | MIC Fusobacterium montiferum (Fusobacterium montiferum) | MIC Peptostreptococcus asaccharolyticus [5] | MIC (Fusobacterium nucleatum) | MIC Fusobacterium nucleatum (Fusobacterium nucleatum) | MIC (Porphyromonas gingivalis) | Geometric Mean (anaerobic bacteria) | MIC Range (anaerobic bacteria) | MIC Clostridium difficile (Clostridium difficile) | also measured
COc1c(N2C[C@@H]3CCCN[C@@H]3C2)c(F)cc2c(=O)c(C(=O)O)cn(C3CC3)c12 [Moxifloxacin] | 0.5 µg/mL (≈ 1.25 µM) | 0.25 µg/mL (≈ 0.623 µM) | 0.5 µg/mL (≈ 1.25 µM) | 0.5 µg/mL (≈ 1.25 µM) | 0.5 µg/mL (≈ 1.25 µM) | 0.25 µg/mL (≈ 0.623 µM) | 0.125 µg/mL (≈ 0.311 µM) | 0.25 µg/mL (≈ 0.623 µM) | 1 µg/mL (≈ 2.49 µM) | 0.5 µg/mL (≈ 1.25 µM) | 0.25 µg/mL (≈ 0.623 µM) | 0.25 µg/mL (≈ 0.623 µM) | 0.5 µg/mL (≈ 1.25 µM) | 0.25 µg/mL (≈ 0.623 µM) | 0.125 µg/mL (≈ 0.311 µM) | 0.25 µg/mL (≈ 0.623 µM) | 0.03 µg/mL (≈ 0.0747 µM) | – | – | – | MIC ([5]; Peptoniphilus asaccharolyticus): 0.125 µg/mL (≈ 0.311 µM); MIC (Bacteroides fragilis): 0.25 µg/mL (≈ 0.623 µM); MIC Bacteroides fragilis (Bacteroides fragilis): 0.5 µg/mL (≈ 1.25 µM)
COc1c(N2CCNC(C)C2)c(F)cc2c(=O)c(C(=O)O)cn(C3CC3)c12 (centres unmarked) [Gatifloxacin] | – | 1 µg/mL (≈ 2.66 µM) | 0.25 µg/mL (≈ 0.666 µM) | 0.25 µg/mL (≈ 0.666 µM) | 0.25 µg/mL (≈ 0.666 µM) | 0.25 µg/mL (≈ 0.666 µM) | 0.125 µg/mL (≈ 0.333 µM) | 0.5 µg/mL (≈ 1.33 µM) | 0.5 µg/mL (≈ 1.33 µM) | 1 µg/mL (≈ 2.66 µM) | 0.25 µg/mL (≈ 0.666 µM) | 0.25 µg/mL (≈ 0.666 µM) | 0.5 µg/mL (≈ 1.33 µM) | – | 0.25 µg/mL (≈ 0.666 µM) | 0.5 µg/mL (≈ 1.33 µM) | 0.06 µg/mL (≈ 0.16 µM) | 0.659 µg/mL | 0.06 to 32 µg/mL | 2 µg/mL (≈ 5.33 µM) | MIC (Clostridium perfringens; Clostridium perfringens, read-out: MIC Clostridium perfringens, single isolates, anaerobic agar dilution): 1 µg/mL (≈ 2.66 µM); MIC Eubacterium leutum (Eubacterium leutum): 0.5 µg/mL (≈ 1.33 µM); MIC Peptostreptococcus prevotii [3]: 1 µg/mL (≈ 2.66 µM); MIC (Prevotella bivia; Prevotella bivia, read-out: MIC Prevotella bivia): 2 µg/mL (≈ 5.33 µM); MIC50 (anaerobic bacteria; read-out: MIC50): 0.5 µg/mL (≈ 1.33 µM); MIC90 (anaerobic bacteria; read-out: MIC90): 2 µg/mL (≈ 5.33 µM); MIC Peptostreptococcus tetradius [4]: 0.5 µg/mL (≈ 1.33 µM); MIC (Clostridium difficile; Clostridioides difficile, read-out: MIC Clostridium difficile): 1 µg/mL (≈ 2.66 µM); MIC (Bacteroides fragilis): 1 µg/mL (≈ 2.66 µM)
CC[C@H]1OC(=O)[C@H](C)[C@@H](O[C@H]2C[C@@](C)(OC)[C@@H](O)[C@H](C)O2)[C@H](C)[C@@H](O[C@@H]2O[C@H](C)C[C@H](N(C)C)[C@H]2O)[C@](C)(OC)C[C@@H](C)C(=O)[C@H](C)[C@@H](O)[C@]1(C)O [Clarithromycin] | – | – | – | – | – | – | – | – | – | – | – | – | – | – | – | – | – | – | – | – | MIC50 ([6]; Mycobacterium avium, 504 h, Middlebrook 7H10 agar, 21 days, read-out: MIC50): 1 µg/mL (≈ 1.34 µM); MIC90 ([6]; Mycobacterium avium, 504 h, Middlebrook 7H10 agar, 21 days, read-out: MIC90): 4 µg/mL (≈ 5.35 µM); G.M. ([6]; geometric mean MIC): 1.554 µg/mL; MIC50 [7]: 16 µg/mL (≈ 21.4 µM); MIC90 [7]: 32 µg/mL (≈ 42.8 µM); G.M. [8]: 12.69 µg/mL
Teicoplanin | 16 µg/mL and >16 µg/mL | – | – | – | – | – | 0.25 µg/mL | – | – | – | – | – | >16 µg/mL | 0.125 µg/mL | – | >16 µg/mL | – | 2.04 µg/mL | 0.03 to 32 µg/mL | 0.25 µg/mL | MIC Prevotella intermedia (Prevotella intermedia): 0.5 µg/mL; MIC Porphyromonas asaccharolytica [2]: 0.125 µg/mL; MIC Clostridium perfringens (Clostridium perfringens): <=.06 μg/ml; MIC Prevotella bivia (Prevotella bivia): 1 µg/mL; MIC Fusobacterium necrogenes (Fusobacterium necrogenes): >16 µg/mL; MIC50 (anaerobic bacteria): 2 µg/mL; MIC90 (anaerobic bacteria): 32 µg/mL; MIC Fusobacterium varium (Fusobacterium varium): >16 µg/mL; MIC Clostridium camis (Clostridium camis): <=.06 μg/ml; MIC Prevotella melaninogenica [9]: 2 µg/mL and 4 µg/mL; MIC Porphyromonas gingivalis (Porphyromonas gingivalis): <=.06 μg/ml; MIC Bacteroides fragilis (Bacteroides fragilis): >16 µg/mL
Amox + clav | – | – | – | – | – | – | 0.25 µg/mL | – | – | – | – | – | – | 0.25 µg/mL | – | <=.125 μg/ml | – | 0.423 µg/mL | 0.062 to 32 µg/mL | 1 µg/mL | MIC Prevotella intermedia (Prevotella intermedia): <=.125 μg/ml; MIC Porphyromonas asaccharolytica [2]: <=.125 μg/ml; MIC Peptostreptococcus magnum [10]: 0.25 µg/mL and 0.5 µg/mL; MIC Clostridium perfringens (Clostridium perfringens): <=.125 μg/ml; MIC Eubacterium leutum (Eubacterium leutum): 1 µg/mL; MIC Peptostreptococcus prevotii [3]: <=.125 μg/ml; MIC Prevotella bivia (Prevotella bivia): <=.125 μg/ml; MIC Fusobacterium necrogenes (Fusobacterium necrogenes): 0.5 µg/mL; MIC Peptostreptococcus micros [11]: <=.125 μg/ml; MIC50 (anaerobic bacteria): 0.25 µg/mL; MIC90 (anaerobic bacteria): 8 µg/mL; MIC Peptostreptococcus tetradius [4]: <=.125 μg/ml; MIC Fusobacterium varium (Fusobacterium varium): 1 µg/mL; MIC Clostridium camis (Clostridium camis): <=.125 μg/ml; MIC Prevotella melaninogenica [9]: 2 µg/mL; MIC Porphyromonas gingivalis (Porphyromonas gingivalis): <=.125 μg/ml
